{
  "source": "patent US20050171053A1",
  "about": "“Carrageenan based antimicrobial compositions” (FMC Corporation, priority 2002, published 2005)",
  "key": {"[1]": {"assay": "Diffusion of NES through a dialysis membrane (HPLC)", "assay_type": "physicochemical", "conditions": "molecular weight cutoff 1000, HPLC", "from_the_text": "FIG. 10 is a graph of the amount of Nestorone released from a composition containing the carrageenans of the present invention.\nWe examined diffusion of NES through a dialysis membrane with a molecular weight cutoff of 1000. The molecular weight of NES is 370. […] Results are illustrated in FIG. 10. […] However, the rate of diffusion observed through the dialysis membrane cannot be related to the rate of diffusion that would be observed in the human vagina as the rate of diffusion was dependant on the surface area of the dialysis bag. Conditions in the vagina would be different.\nDiffusion of NES from CARRA/NES was investigated by two different methods, membrane dialysis and Ultrafree-15 centrifugation. In the membrane dialysis experiments, the membrane cutoff is 1,000, and diffusion of NES was measured by HPLC. […] In the Ultrafree-15 centrifugation experiments, a Millipore, Ultrafree-15 centrifugal filter and tube assembly was employed, which allows the passage of molecules of a MW<500 pass through; NES MW is 370."}, "[2]": {"conditions": "in vivo; cited from earlier work"}, "[3]": {"test_system": "progestational potency", "conditions": "cited from earlier work"}, "[4]": {"test_system": "androgenic, estrogenic and glucocorticoid-like (hepatic glycogen deposition) activity", "conditions": "cited from earlier work"}, "[5]": {"conditions": "in vivo, po; cited from earlier work"}, "[6]": {"conditions": "in vivo, po; cited from earlier work", "remark": "listed apart in the source"}, "[7]": {"test_system": "HSV-2", "assay": "HSV-2/mouse system, formulations with and without LSA", "assay_type": "in vivo, mice", "conditions": "for effect of addition to the K-II/λ carrageenan composition on efficacy against HSV-2 infection in mice: 5% added", "procedure": "LSA-carrageenan was compared to carrageenan in the HSV-2/mouse system in order to determine efficacy in blocking viral infection in vivo.\nEach formulation is initially tested in a total of 20 mice. Compounds or formulations that show a blocking effect are assayed again in another 20 mice.\nSubsequently, LSA was assayed without Carrageenan to better evaluate its inhibitory properties. LSA was added to the inert thickener, methylcellulose, to maintain the same viscosity that vaginal products (lubricants, spermicides, and microbicides) generally have. (Data shown below.)"}, "[8]": {"test_system": "HIV", "assay": "Protection of epithelial cells in vitro against HIV infection", "assay_type": "cell-based", "from_the_text": "FIG. 5 is a plot of the percent inhibition by LSA of viral replication as measured by p24 ELISA.\n(§1) LSA is effective as a microbicide against HSV-2 infection, HIV, and other STI's, with or without carrageenan. […] The inhibitory effect may be observed with other enveloped viruses such as the human pathogen, human T cell leukemia virus. In addition, epithelial cells are protected against the human papillomavirus, which is not an enveloped virus. The inhibitory efficaciousness of LSA may thus extend to a broader range of STI's."}, "[9]": {"test_system": "human papillomavirus", "assay": "Protection of epithelial cells against human papillomavirus", "assay_type": "cell-based", "from_the_text": "as §1"}},
  "note": "“Also recorded” adds a separate entry of the source.",
  "data": [
    {"molecule": "C=C1C[C@H]2[C@@H]3CCC4=CC(=O)CC[C@@H]4[C@H]3CC[C@]2(C)[C@@]1(OC(C)=O)C(C)=O", "note": "[NES, 16-methylene-17α-acetoxy-19-norpregn-4-ene-3,20-dione]", "values": [
      {"measurement": "diffusion of NES through dialysis membrane", "setting": "[1]", "result": "diffused from the dialysis bag at a constant rate"},
      {"measurement": "metabolism upon oral administration", "setting": "[2]", "result": "rapid metabolism and inactivation"},
      {"measurement": "progestational activity relative to levonorgestrel", "setting": "[3]", "result": 10, "unit": "times"},
      {"measurement": "progestational activity relative to progesterone", "setting": "[3]", "result": 100, "unit": "times"},
      {"measurement": "androgenic, estrogenic and glucocorticoid-like activity", "setting": "[4]", "result": "lack of androgenic, estrogenic and glucocorticoid-like"}
    ]},
    {"molecule": "carrageenan", "values": [
      {"measurement": "toxicity", "setting": "[5]", "result": "non-toxic"},
      {"measurement": "absorption", "setting": "[6]", "result": "virtually non-existent"},
      {"measurement": "breakdown in the gastrointestinal tract", "setting": "[6]", "result": "minimal at best"}
    ]},
    {"molecule": "dextran sulfate", "values": [
      {"measurement": "effect of addition to the K-II/λ carrageenan composition on efficacy against HSV-2 infection in mice", "setting": "[7]", "result": "had no effect on efficacy"}
    ]},
    {"molecule": "heparin", "values": [
      {"measurement": "effect of addition to the K-II/λ carrageenan composition on efficacy against HSV-2 infection in mice", "setting": "[7]", "result": "had no effect on efficacy"}
    ]},
    {"molecule": "lignosulfonic acid [LSA]", "values": [
      {"measurement": "effectiveness of LSA", "setting": "[7]; concentration of 0.25%", "result": "highly effective"},
      {"measurement": "blocking of HSV-2 infection in mice by LSA without carrageenan", "setting": "[7]; mouse, in vivo", "result": "more effective than carrageenan; also recorded: effective in protecting"},
      {"measurement": "protection of epithelial cells against HIV infection", "setting": "[8]", "result": "effective in protecting"},
      {"measurement": "protection of epithelial cells against human papillomavirus", "setting": "[9]", "result": "protected"}
    ]}
  ]
}
